Measured values: PubChem BioAssay AID248 (DTP/NCI, 2004)
Values joined by “and” are separate entries in the source; they are usually repeats but may differ in a detail not shown here. Identical values can stand only once. Inconclusive results and toxic doses are left out. Cut-off read from the data, not from the text of the source: active = T/C of 150% or more; inactive = T/C below 125%.

Tested on: L1210 leukemia ip in BDF1 mice, survival T/C
Experiment: NCI In Vivo Anticancer Drug Screen. Data for tumor model L1210 Leukemia (intraperitoneal) in B6D2F1 (BDF1) mice
Conditions: endpoint: mean survival time, higher = longer survival
Summary of the method: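 Ratio derived from survival: compound-dosed mice over vehicle-dosed mice, all bearing a transplantable tumor.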

[1] = dose: 100.0 mg/kg/injection, schedule: Q04DX002 (ip), vehicle: Klucel (hydroxypropylcellulose) (HPC)
[2] = dose: 200.0 mg/kg/injection, schedule: Q04DX002 (ip), vehicle: Klucel (hydroxypropylcellulose) (HPC)
[3] = dose: 100.0 mg/kg/injection, schedule: Q01DX001 (ip), vehicle: other
[4] = dose: 200.0 mg/kg/injection, schedule: Q01DX001 (ip), vehicle: other
[5] = dose: 400.0 mg/kg/injection, schedule: Q01DX001 (ip), vehicle: other
[6] = dose: 25.0 mg/kg/injection, schedule: Q01DX009 (ip), vehicle: saline with Tween-80
[7] = dose: 50.0 mg/kg/injection, schedule: Q01DX009 (ip), vehicle: saline with Tween-80
[8] = dose: 100.0 mg/kg/injection, schedule: Q01DX009 (ip), vehicle: saline with Tween-80
[9] = dose: 100.0 mg/kg/injection, schedule: Q04DX003 (ip), vehicle: saline
[10] = dose: 50.0 mg/kg/injection, schedule: Q01DX001 (ip), vehicle: carboxymethylcellulose (CMC)
[11] = dose: 100.0 mg/kg/injection, schedule: Q01DX001 (ip), vehicle: carboxymethylcellulose (CMC)
[12] = dose: 200.0 mg/kg/injection, schedule: Q01DX001 (ip), vehicle: carboxymethylcellulose (CMC)
[13] = dose: 400.0 mg/kg/injection, schedule: Q01DX001 (ip), vehicle: carboxymethylcellulose (CMC)
[14] = dose: 100.0 mg/kg/injection, schedule: Q01DX001 (ip), vehicle: saline
[15] = dose: 200.0 mg/kg/injection, schedule: Q01DX001 (ip), vehicle: saline
[16] = dose: 400.0 mg/kg/injection, schedule: Q01DX001 (ip), vehicle: saline
[17] = dose: 100.0 mg/kg/injection, schedule: Q04DX002 (ip), vehicle: saline with Tween-80
[18] = dose: 100.0 mg/kg/injection, schedule: Q01DX009 (ip), vehicle: Klucel (hydroxypropylcellulose) (HPC)
[19] = dose: 200.0 mg/kg/injection, schedule: Q01DX009 (ip), vehicle: Klucel (hydroxypropylcellulose) (HPC)
[20] = dose: 400.0 mg/kg/injection, schedule: Q01DX009 (ip), vehicle: Klucel (hydroxypropylcellulose) (HPC)
[21] = dose: 100.0 mg/kg/injection, schedule: Q04DX003 (ip), vehicle: saline with Tween-80
[22] = dose: 200.0 mg/kg/injection, schedule: Q01DX009 (ip), vehicle: saline with Tween-80
[23] = dose: 200.0 mg/kg/injection, schedule: Q04DX003 (ip), vehicle: saline with Tween-80
[24] = dose: 400.0 mg/kg/injection, schedule: Q01DX009 (ip), vehicle: saline with Tween-80
[25] = dose: 400.0 mg/kg/injection, schedule: Q04DX003 (ip), vehicle: saline with Tween-80
[26] = dose: 100.0 mg/kg/injection, schedule: Q04DX003 (ip), vehicle: Klucel (hydroxypropylcellulose) (HPC)
[27] = dose: 200.0 mg/kg/injection, schedule: Q04DX003 (ip), vehicle: Klucel (hydroxypropylcellulose) (HPC)
[28] = dose: 400.0 mg/kg/injection, schedule: Q04DX003 (ip), vehicle: Klucel (hydroxypropylcellulose) (HPC)

Measured: T/C

CC(=O)c1c(C)[nH]c2ccc(NS(=O)(=O)N(C)C)cc12
inactive: dose: 75.0 mg/kg/injection, schedule: Q04DX003 (ip), vehicle: Klucel (hydroxypropylcellulose) (HPC) 96 % of control | dose: 150.0 mg/kg/injection, schedule: Q04DX003 (ip), vehicle: Klucel (hydroxypropylcellulose) (HPC) 102 % of control | dose: 300.0 mg/kg/injection, schedule: Q04DX003 (ip), vehicle: Klucel (hydroxypropylcellulose) (HPC) 100 % of control

O=c1c2ccccc2[nH]c2ncccc12
inactive: [1] 96 % of control | [2] 92 % of control

CCCCCCCCN(CCCCCCCC)NC(C)=O
inactive: dose: 50.0 mg/kg/injection, schedule: Q01DX001 (ip), vehicle: other 96 % of control | [3] 104 % of control | [4] 96 % of control | [5] 93 % of control

NC(N)=N/N=C/C(Cl)Cl
inactive: dose: 15.0 mg/kg/injection, schedule: Q01DX Z (ip), vehicle: carboxymethylcellulose (CMC) 103 % of control | [6] 100 % of control | dose: 30.0 mg/kg/injection, schedule: Q01DX Z (ip), vehicle: carboxymethylcellulose (CMC) 97 % of control | dose: 30.0 mg/kg/injection, schedule: Q01DX Z (oral), vehicle: carboxymethylcellulose (CMC) 92 % of control | dose: 37.0 mg/kg/injection, schedule: Q01DX Z (oral), vehicle: carboxymethylcellulose (CMC) 113 % of control | [7] 103 % of control | dose: 50.0 mg/kg/injection, schedule: Q04DX003 (ip), vehicle: saline 98 % of control | dose: 60.0 mg/kg/injection, schedule: Q01DX Z (ip), vehicle: carboxymethylcellulose (CMC) 111 % of control | dose: 60.0 mg/kg/injection, schedule: Q01DX Z (oral), vehicle: carboxymethylcellulose (CMC) 121 % of control | dose: 75.0 mg/kg/injection, schedule: Q01DX001 (oral), vehicle: carboxymethylcellulose (CMC) 113 % of control | dose: 75.0 mg/kg/injection, schedule: Q01DX Z (oral), vehicle: carboxymethylcellulose (CMC) 107 % of control | [8] 121 % of control | [9] 102 % of control | dose: 150.0 mg/kg/injection, schedule: Q01DX001 (oral), vehicle: carboxymethylcellulose (CMC) 104 % of control | dose: 300.0 mg/kg/injection, schedule: Q01DX001 (oral), vehicle: carboxymethylcellulose (CMC) 104 % of control | dose: 300.0 mg/kg/injection, schedule: Q01DX Z (oral), vehicle: carboxymethylcellulose (CMC) 113 % of control | dose: 600.0 mg/kg/injection, schedule: Q01DX001 (oral), vehicle: carboxymethylcellulose (CMC) 117 % of control

C(=Nc1ccccc1)c1ccccc1
inactive: [10] 98 % of control | [11] 96 % of control | dose: 100.0 mg/kg/injection, schedule: Q01DX009 (ip), vehicle: saline 98 % of control | [9] 104 % of control | [12] 91 % of control | dose: 200.0 mg/kg/injection, schedule: Q01DX009 (ip), vehicle: saline 100 % of control | dose: 200.0 mg/kg/injection, schedule: Q04DX003 (ip), vehicle: saline 105 % of control | [13] 91 % of control

C/C(=N\NC(N)=S)C1OCCc2ccccc21 (stereo unspecified)
inactive: dose: 5.0 mg/kg/injection, schedule: Q01DX001 (ip), vehicle: saline 105 % of control | dose: 10.0 mg/kg/injection, schedule: Q01DX001 (ip), vehicle: saline 90 % of control | dose: 20.0 mg/kg/injection, schedule: Q01DX001 (ip), vehicle: saline 98 % of control

O=C1NC(Cc2ccc(O)cc2)C(=O)N1c1ccccc1O (stereo unspecified)
inactive: [11] 96 % of control | [12] 96 % of control | [13] 94 % of control

CCOc1ncc(N)c(OCC)n1
inactive: dose: 50.0 mg/kg/injection, schedule: Q01DX001 (ip), vehicle: saline 112 % of control | [14] 97 % of control | [15] 103 % of control | [16] 100 % of control

O=[N+]([O-])/C=C\c1cccc(OCc2ccccc2)c1
inactive: [10] 101 % of control | [11] 103 % of control | [12] 92 % of control | [13] 97 % of control

O=S(=O)(ON1C=CC=CC1)ON1C=CC=CC1
inactive: dose: 25.0 mg/kg/injection, schedule: Q04DX002 (ip), vehicle: saline with Tween-80 106 % of control | dose: 50.0 mg/kg/injection, schedule: Q04DX002 (ip), vehicle: saline with Tween-80 95 % of control | [17] 106 % of control

CCCCN=C=S
inactive: [17] 104 % of control | dose: 200.0 mg/kg/injection, schedule: Q04DX002 (ip), vehicle: saline with Tween-80 91 % of control

O=C(Nc1ccc(C(F)(F)F)c([N+](=O)[O-])c1)c1ccc(C(=O)Nc2ccc(C(F)(F)F)c([N+](=O)[O-])c2)cc1
inactive: [3] 96 % of control | [4] 93 % of control | [5] 86 % of control

Nc1ccc(SS(N)(=O)=O)cc1
inactive: [14] 98 % of control | [15] 98 % of control

Cc1ccc(NC(=O)Nc2cccc(C(F)(F)F)c2)cc1C
inactive: [18] 98 % of control | [19] 98 % of control | [20] 91 % of control

Nc1cnccc1Nc1ccc(-c2ccccc2)cc1
inactive: [8] 92 % of control

CCC(=O)C1(c2cccc(O)c2)CCN(C)CC1
inactive: dose: 75.0 mg/kg/injection, schedule: Q01DX001 (ip), vehicle: saline 94 % of control | dose: 150.0 mg/kg/injection, schedule: Q01DX001 (ip), vehicle: saline 97 % of control

O=S(=O)(O)c1cc(Cl)c(O)c(Cl)c1
inactive: [18] 95 % of control | [19] 102 % of control | [20] 106 % of control

c1ccc2sc(SN3CCOCC3)nc2c1
inactive: [8] 95 % of control | [21] 100 % of control | [22] 92 % of control | [23] 87 % of control | [24] 92 % of control | [25] 89 % of control

CC(C)C(NC(=O)CCNC(=O)OCc1ccccc1)C(=O)O (stereo unspecified)
inactive: [21] 97 % of control | [23] 97 % of control | [25] 97 % of control

O=C1CC(C(c2ccccc2)c2ccccc2)CO1 (stereo unspecified)
inactive: dose: 100.0 mg/kg/injection, schedule: Q01DX001 (ip), vehicle: Klucel (hydroxypropylcellulose) (HPC) 104 % of control | [18] 110 % of control and 89 % of control | [1] 94 % of control and 99 % of control | [26] 94 % of control | dose: 200.0 mg/kg/injection, schedule: Q01DX001 (ip), vehicle: Klucel (hydroxypropylcellulose) (HPC) 100 % of control | [19] 113 % of control and 89 % of control | [2] 94 % of control and 96 % of control | [27] 94 % of control | dose: 400.0 mg/kg/injection, schedule: Q01DX001 (ip), vehicle: Klucel (hydroxypropylcellulose) (HPC) 98 % of control | [20] 116 % of control and 89 % of control | dose: 400.0 mg/kg/injection, schedule: Q04DX002 (ip), vehicle: Klucel (hydroxypropylcellulose) (HPC) 99 % of control and 101 % of control | [28] 95 % of control

Clc1ccc(/C=N\N=C\c2ccc(Cl)c(Cl)c2)cc1Cl
inactive: [6] 90 % of control | [7] 90 % of control | [8] 95 % of control and 90 % of control | [23] 90 % of control | [24] 97 % of control | [25] 91 % of control

COC(=O)C1=C(\N2CCOCC2)CCCCC/C=C\1C(=O)OC
inactive: [8] 94 % of control | [22] 91 % of control | [24] 89 % of control

Cc1c(CC#N)cc(C)c2c3c([nH]c12)CCCC3
inactive: dose: 50.0 mg/kg/injection, schedule: Q01DX009 (ip), vehicle: Klucel (hydroxypropylcellulose) (HPC) 95 % of control | [18] 98 % of control | [19] 91 % of control

COc1ccc(-c2c(C)c(C)[nH]c(=O)c2C#N)c(OCc2ccccc2)c1OC
inactive: [14] 101 % of control | [15] 101 % of control | [16] 93 % of control

CCOC(=O)Cc1ccc2c(c1)sc(=S)n2C
inactive: [26] 96 % of control | [27] 87 % of control | [28] 92 % of control
